From patent publication US20240115654A1, “INTRAVENOUS ADMINISTRATION OF ENGINEERED ANTIMICROBIAL AMPHIPHILIC PEPTIDES” (priority 2021, published 2024)
“And” between values parts separate entries of the source, which are not always exact repeats. Equal values may be shown once. Peptide text beside a SMILES is read from it.

Text: All subjects who met eligibility criteria were confined to the clinical research unit from […] through Day 3. At admission, physical examination, vital signs, 12 lead ECG and weight were obtained, medical and medication history were updated if necessary, safety blood tests (hematology and chemistry), urinalysis, urine drug screen and an alcohol breath test were repeated and a urine pregnancy test was done for women of childbearing potential.
At each dose level, there were 2 sentinel subjects, (1 active, 1 placebo), who were dosed at least 48 hours in advance of the other subjects in their respective group. Following review of safety data, including physical examination, vital signs, and review of adverse events from the first 2 subjects, enrolment in the cohort continued.
A 12-lead ECG was performed on Day 1, within 60 minutes of infusion start (in triplicate), mid-way through the infusion, at the completion of the infusion, 30 minutes after completion of the infusion and at various timepoints following the end of the infusion.
Vital signs were recorded within 60 minutes pre-dose, at the mid-point of the infusion and post dose vitals were assessed at completion of the infusion, 0.5, 1, 2, 3, 4, 6, 9, 12, 24 and 48 hours post dose, after at least 3 minutes of rest in supine position.
Subjects returned to the study center 7 days after dosing, for the termination visit. A full physical examination, vital signs and weight were obtained, concomitant medications were updated if necessary, safety blood specimens (haematology and chemistry, PT and aPTT) and urine were collected for urinalysis and urine drug screening. A serum pregnancy test was done for women of childbearing potential and a 12-lead ECG was performed.
In this study dose limiting toxicity (DLT) was defined as any drug related ≥Grade 3 AEs occurring despite optimal therapeutic interventions (which included but were not limited to allergic/hypersensitivity reactions, dermatological reactions/infusion site reactions, haematological toxicities such as neutropenia, thrombocytopenia and anaemia and clinical chemistry abnormalities) experienced up to Day 7 (Termination Visit).
(§1) All subjects who received any amount of study drug were included in the safety analysis (Safety population).
The study was a double blinded, randomized, placebo-controlled study. The placebo administered was 0.9% sodium chloride.
On Day 1 (day of dosing), subjects were randomly assigned either peptide IV or Placebo IV. At each dose level, there were 2 sentinel subjects, (1 active, 1 placebo), who were dosed at least 48 hours in advance of the other subjects in their respective group. Following review of safety data, including physical examination, vital signs, and review of adverse events from the first 2 subjects, enrolment in the cohort continued. All subjects who met eligibility criteria were confined to the clinical research unit from Day −2 through Day 3. At admission, physical examination, vital signs, 12 lead ECG and weight were obtained, medical and medication history were updated if necessary, safety blood tests (hematology and chemistry), urinalysis, urine drug screen and an alcohol breath test were repeated and a urine pregnancy test was done for women of childbearing potential.
as §1

SMILES: CC(C)[C@H](NC(=O)[C@H](Cc1c[nH]c2ccccc12)NC(=O)[C@H](CCCNC(=N)N)NC(=O)[C@H](CCCNC(=N)N)NC(=O)[C@@H](NC(=O)[C@@H](NC(=O)[C@H](CCCNC(=N)N)NC(=O)[C@@H](NC(=O)[C@@H](NC(=O)[C@H](CCCNC(=N)N)NC(=O)[C@H](CCCNC(=N)N)NC(=O)[C@H](Cc1c[nH]c2ccccc12)NC(=O)[C@@H](NC(=O)[C@H](CCCNC(=N)N)NC(=O)[C@H](CCCNC(=N)N)NC(=O)[C@@H](NC(=O)[C@H](CCCNC(=N)N)NC(=O)[C@H](CCCNC(=N)N)NC(=O)[C@@H](NC(=O)[C@H](Cc1c[nH]c2ccccc12)NC(=O)[C@H](CCCNC(=N)N)NC(=O)[C@@H](N)CCCNC(=N)N)C(C)C)C(C)C)C(C)C)C(C)C)C(C)C)C(C)C)C(C)C)C(=O)N[C@@H](CCCNC(=N)N)C(=O)N[C@@H](CCCNC(=N)N)C(N)=O [SEQ ID NO: 1] (H-RRWVRRVRRVWRRVVRVVRRWVRR-NH2)
- Related TEAE Co[?], n participants (Pooled SEQ ID NO: 1 (N = 29)): 0
- Related TEAE F[?], n participants (Pooled SEQ ID NO: 1 (N = 29)): 0
- Related TEAE Nervous system disorders, n participants (Pooled SEQ ID NO: 1 (N = 29)): 0
- Related TEAE O[?] (r38, respiratory SOC), n participants (Pooled SEQ ID NO: 1 (N = 29)): 0
- Related TEAE Pain in extremity, n participants (Pooled SEQ ID NO: 1 (N = 29)): 0
- Related TEAE Respiratory, thoracic and m[?] disorders, n participants (Pooled SEQ ID NO: 1 (N = 29)): 0
- Related TEAE T[?], n participants (Pooled SEQ ID NO: 1 (N = 29)): 0
- Related TEAE [?] headache, n participants (Pooled SEQ ID NO: 1 (N = 29)): 0
- Related TEAE, occurrences (M) (Pooled SEQ ID NO: 1 (N = 29)): 12
- TEAE A[?] (r19, skin SOC), n participants (Pooled SEQ ID NO: 1 (N = 29)): 0
- TEAE Blood and lymphatic system disorders, n participants (Pooled SEQ ID NO: 1 (N = 29)): 0
- TEAE Constipation, n participants (Pooled SEQ ID NO: 1 (N = 29)): 0
- TEAE D[?] contact, M occurrences (Pooled SEQ ID NO: 1 (N = 29)): 3
- TEAE D[?] contact, n participants (Pooled SEQ ID NO: 1 (N = 29)): 2
- TEAE Gastrointestinal disorders, M occurrences (Pooled SEQ ID NO: 1 (N = 29)): 3
- TEAE Gastrointestinal disorders, n participants (Pooled SEQ ID NO: 1 (N = 29)): 2
- TEAE General disorders and administration site conditions, M occurrences (Pooled SEQ ID NO: 1 (N = 29)): 8
- TEAE General disorders and administration site conditions, n participants (Pooled SEQ ID NO: 1 (N = 29)): 7
- TEAE Injury, [?] and procedural complications, % participants (Pooled SEQ ID NO: 1 (N = 29)): 48.3%
- TEAE Injury, [?] and procedural complications, n participants (Pooled SEQ ID NO: 1 (N = 29)): 14
- TEAE O[?] (r37, vascular SOC), M occurrences (Pooled SEQ ID NO: 1 (N = 29)): 2
- TEAE O[?] (r37, vascular SOC), n participants (Pooled SEQ ID NO: 1 (N = 29)): 1
- TEAE O[?] pain, n participants (Pooled SEQ ID NO: 1 (N = 29)): 0
- TEAE Related (to study drug), M occurrences (Pooled SEQ ID NO: 1 (N = 29)): 12
- TEAE Related (to study drug), n participants (Pooled SEQ ID NO: 1 (N = 29)): 2
- TEAE Respiratory, thoracic and [?] disorders, n participants (Pooled SEQ ID NO: 1 (N = 29)): 0
- TEAE Severity Grade 1, participants % (Pooled SEQ ID NO: 1 (N = 29)): 82.8%
- TEAE Severity Grade 1, participants n (Pooled SEQ ID NO: 1 (N = 29)): 24
- TEAE Skin reaction, M occurrences (Pooled SEQ ID NO: 1 (N = 29)): 3
- TEAE Skin reaction, n participants (Pooled SEQ ID NO: 1 (N = 29)): 2
- TEAE V[?] (r24, general SOC), M occurrences (Pooled SEQ ID NO: 1 (N = 29)): 4
- TEAE V[?] (r24, general SOC), n participants (Pooled SEQ ID NO: 1 (N = 29)): 3
- TEAE Vascular disorders, M occurrences (Pooled SEQ ID NO: 1 (N = 29)): 5
- TEAE Vascular disorders, n participants (Pooled SEQ ID NO: 1 (N = 29)): 3
- TEAE [?] (r26, general SOC), n participants (Pooled SEQ ID NO: 1 (N = 29)): 0
- TEAE [?] (r39, vascular SOC), n participants (Pooled SEQ ID NO: 1 (N = 29)): 0
- TEAE [?] (r44, nervous SOC), n participants (Pooled SEQ ID NO: 1 (N = 29)): 0
- TEAE [?] (r52, blood SOC), n participants (Pooled SEQ ID NO: 1 (N = 29)): 0
- TEAE, occurrences (M) (Pooled SEQ ID NO: 1 (N = 29)): 52
- Participants With At Least 1 TEAE, n (%) (Pooled SEQ ID NO: 1 (N = 35)): 31 (88.6%)
- Participants With At Least 1 TEAE, occurrences m (Pooled SEQ ID NO: 1 (N = 35)): 71 and 72
- Participants With At Least 1 Treatment-Related TEAE, n (%) (Pooled SEQ ID NO: 1 (N = 35)): 13 (37.1%)
- Participants With At Least 1 Treatment-Related TEAE, occurrences m (Pooled SEQ ID NO: 1 (N = 35)): 23
- TEAE by system organ class: Blood and Lymphatic System Disorders, participants n (%) (Pooled SEQ ID NO: 1 (N = 35)): 0
- TEAE by system organ class: Gastrointestinal Disorders, occurrences m (Pooled SEQ ID NO: 1 (N = 35)): 4
- TEAE by system organ class: Gastrointestinal Disorders, participants n (%) (Pooled SEQ ID NO: 1 (N = 35)): 3 (8.6%)
- TEAE by system organ class: General Disorders and Administration Site Conditions, occurrences m (Pooled SEQ ID NO: 1 (N = 35)): 17
- TEAE by system organ class: General Disorders and Administration Site Conditions, participants n (%) (Pooled SEQ ID NO: 1 (N = 35)): 13 (37.1%)
- TEAE by system organ class: Infections and Infestations, occurrences m (Pooled SEQ ID NO: 1 (N = 35)): 1
- TEAE by system organ class: Infections and Infestations, participants n (%) (Pooled SEQ ID NO: 1 (N = 35)): 1 (2.9%)
- TEAE by system organ class: Injury, Poisoning, and Procedural Complications, occurrences m (Pooled SEQ ID NO: 1 (N = 35)): 24
- TEAE by system organ class: Injury, Poisoning, and Procedural Complications, participants n (%) (Pooled SEQ ID NO: 1 (N = 35)): 18
- TEAE by system organ class: Musculoskeletal and Connective Tissue Disorders, occurrences m (Pooled SEQ ID NO: 1 (N = 35)): 6
- TEAE by system organ class: Musculoskeletal and Connective Tissue Disorders, participants n (%) (Pooled SEQ ID NO: 1 (N = 35)): 6 (17.1%)
- TEAE by system organ class: Nervous System Disorders, occurrences m (Pooled SEQ ID NO: 1 (N = 35)): 6
- TEAE by system organ class: Nervous System Disorders, participants n (%) (Pooled SEQ ID NO: 1 (N = 35)): 6 (17.1%)
- TEAE by system organ class: Respiratory, Thoracic, and Mediastinal disorders, participants n (%) (Pooled SEQ ID NO: 1 (N = 35)): 0
- TEAE by system organ class: Skin and Subcutaneous Tissue Disorders, occurrences m (Pooled SEQ ID NO: 1 (N = 35)): 9
- TEAE by system organ class: Skin and Subcutaneous Tissue Disorders, participants n (%) (Pooled SEQ ID NO: 1 (N = 35)): 7 (20.0%)
- TEAE by system organ class: Vascular Disorders, occurrences m (Pooled SEQ ID NO: 1 (N = 35)): 5
- TEAE by system organ class: Vascular Disorders, participants n (%) (Pooled SEQ ID NO: 1 (N = 35)): 3 (8.6%)
- TEAE severity Grade 1, occurrences m (Pooled SEQ ID NO: 1 (N = 35)): 64
- TEAE severity Grade 1, participants n (%) (Pooled SEQ ID NO: 1 (N = 35)): 30 (85.7%)
- TEAE severity Grade 2, occurrences m (Pooled SEQ ID NO: 1 (N = 35)): 8
- TEAE severity Grade 2, participants n (%) (Pooled SEQ ID NO: 1 (N = 35)): 5 (14.3%)
- TEAE severity Grade 3, participants n (%) (Pooled SEQ ID NO: 1 (N = 35)): 0
- TEAE severity Grade 4, participants n (%) (Pooled SEQ ID NO: 1 (N = 35)): 0
